# Results reported in patent US9304136B2, “Means and methods for assessing increased peroxisomal proliferation” (BASF SE, priority 2008, dated 2016).
# Tests used:
# [1] = test system: male rats; experiment: Plasma metabolite profiling after 28-day oral dosing, male rats (markers for peroxisomal proliferators); assay type: in vivo, rat; conditions: once daily gavage; for 16-Methylheptadecanoic acid, change in plasma relative to control / 17-Methyloctadecanoic acid, change in plasma relative to control / Coenzyme Q10, change in plasma relative to control / Proline, change in plasma relative to control / Threonine, change in plasma relative to control / Tyrosine, change in plasma relative to control / trans-4-Hydroxyproline, change in plasma relative to control: marker direction down; for Eicosatrienoic acid (C20:3), change in plasma relative to control: marker direction up
# Experimental: (§1) A group of each 5 male and female rats was dosed once daily with the indicated compounds (see tables below) at 10 and 100 mg/kg body weight per gavage over 28 days. Additional groups of each 5 male and female animals served as controls. Before starting the treatment period, animals, which were 62-64 days old when supplied, were acclimatized to the housing and environmental conditions for 7 days. All animals of the animal population were kept under the same constant temperature (20-24±3° C.) and the same constant humidity (30-70%). Each animal of the animal population was kept in a separate cage. The animals of the animal population are fed ad libitum. The food to be used was be essentially free of chemical or microbial contaminants. Drinking water was also offered ad libitum. Accordingly, the water was be free of chemical and microbial contaminants as laid down in the European Drinking Water Directive 98/83/EG. The illumination period was 12 hours light followed by 12 hours darkness (12 hours light, from 6:00 to 18:00, and 12 hours darkness, from 18:00 to 6:00).
# (§2) In the morning of day 7, 14, and 28, blood was taken from the retroorbital venous plexus from fasted anaesthetized animals. From each animal, 1 ml of blood was collected with EDTA as anticoagulant. The samples were be centrifuged for generation of plasma. All plasma samples were covered with a N2 atmosphere and then stored at −80° C. until analysis.
# (§3) For mass spectrometry-based metabolite profiling analyses plasma samples were extracted and a polar and a non-polar fraction was obtained. For GC-MS analysis, the non-polar fraction was […] with methanol under acidic conditions to yield the fatty acid methyl esters. Both fractions were further derivatised with O-methyl-hydroxyamine hydrochloride and pyridine to convert Oxo-groups to O-metyloximes and subsequently with a silyating agent […]. In LC-MS analysis, both fractions were reconstituted in appropriate solvent mixtures. HPLC was performed by gradient elution on reversed phase separation columns. For mass spectrometric detection metanomics proprietary technology was applied which allows target and high sensitivity MRM (Multiple Reaction Monitoring) profiling in parallel to a full screen analysis.
# (§4) Following comprehensive analytical validation steps, the data for each analyte were normalized against data from pool samples. These samples were run in parallel through the whole process to account for process variability. The significance of treatment group values specific for sex, dose group and metabolite was determined by comparing means of the treated groups to the means of the respective untreated control groups using Student's t-test. Normalized treatment group values and their significance were fed into a database for further statistics and data mining processes.
# (§5) The changes of the group of plasma metabolites being indicative for increased peroxisomal proliferation after treatment of the rats are shown in the following tables: […]
# [2] = test system: female rats; experiment: Plasma metabolite profiling after 28-day oral dosing, female rats (markers for peroxisomal proliferators); assay type: in vivo, rat; conditions: once daily gavage; for 16-Methylheptadecanoic acid, change in plasma relative to control / 17-Methyloctadecanoic acid, change in plasma relative to control / Cytosine, change in plasma relative to control / Phosphatidylcholine (C18:0/C22:6), change in plasma relative to control: marker direction down; for Coenzyme Q9, change in plasma relative to control / Gamma-Linolenic acid (C18:cis[6,9,12]3), change in plasma relative to control / Glycerol, lipid fraction, change in plasma relative to control / Palmitic acid (C16:0), change in plasma relative to control / Pantothenic acid, change in plasma relative to control / Threonic acid, change in plasma relative to control: marker direction up
# Experimental: as §1, §2, §3, §4, §5
smiles,measurement,setting,value
CCOC(=O)C(C)(C)Oc1ccc(Cl)cc1 [Clofibrate],"16-Methylheptadecanoic acid, change in plasma relative to control",[1]; mh7 (day 7),0.24
same,"17-Methyloctadecanoic acid, change in plasma relative to control",[1]; mh7 (day 7),0.35
same,"Coenzyme Q10, change in plasma relative to control",[1]; mh7 (day 7),0.45
same,"Proline, change in plasma relative to control",[1]; mh7 (day 7),0.78
same,"Threonine, change in plasma relative to control",[1]; mh7 (day 7),0.68
same,"Tyrosine, change in plasma relative to control",[1]; mh7 (day 7),0.87
same,"trans-4-Hydroxyproline, change in plasma relative to control",[1]; mh7 (day 7),0.77
same,"Eicosatrienoic acid (C20:3), change in plasma relative to control",[1]; mh7 (day 7),1.65
same,"16-Methylheptadecanoic acid, change in plasma relative to control",[1]; mh14 (day 14),0.21
same,"17-Methyloctadecanoic acid, change in plasma relative to control",[1]; mh14 (day 14),0.27
same,"Coenzyme Q10, change in plasma relative to control",[1]; mh14 (day 14),0.60
same,"Proline, change in plasma relative to control",[1]; mh14 (day 14),0.80
same,"Threonine, change in plasma relative to control",[1]; mh14 (day 14),1.02
same,"Tyrosine, change in plasma relative to control",[1]; mh14 (day 14),0.95
same,"trans-4-Hydroxyproline, change in plasma relative to control",[1]; mh14 (day 14),0.64
same,"Eicosatrienoic acid (C20:3), change in plasma relative to control",[1]; mh14 (day 14),1.72
same,"16-Methylheptadecanoic acid, change in plasma relative to control",[1]; mh28 (day 28),0.28
same,"17-Methyloctadecanoic acid, change in plasma relative to control",[1]; mh28 (day 28),0.37
same,"Coenzyme Q10, change in plasma relative to control",[1]; mh28 (day 28),0.47
same,"Proline, change in plasma relative to control",[1]; mh28 (day 28),0.87
same,"Threonine, change in plasma relative to control",[1]; mh28 (day 28),1.06
same,"Tyrosine, change in plasma relative to control",[1]; mh28 (day 28),1.02
same,"trans-4-Hydroxyproline, change in plasma relative to control",[1]; mh28 (day 28),0.57
same,"Eicosatrienoic acid (C20:3), change in plasma relative to control",[1]; mh28 (day 28),2.54
same,"16-Methylheptadecanoic acid, change in plasma relative to control",[2]; fh7 (day 7),0.55
same,"17-Methyloctadecanoic acid, change in plasma relative to control",[2]; fh7 (day 7),0.48
same,"Cytosine, change in plasma relative to control",[2]; fh7 (day 7),0.87
same,"Phosphatidylcholine (C18:0/C22:6), change in plasma relative to control",[2]; fh7 (day 7),0.88
same,"Coenzyme Q9, change in plasma relative to control",[2]; fh7 (day 7),1.86
same,"Gamma-Linolenic acid (C18:cis[6,9,12]3), change in plasma relative to control",[2]; fh7 (day 7),2.04
same,"Glycerol, lipid fraction, change in plasma relative to control",[2]; fh7 (day 7),1.39
same,"Palmitic acid (C16:0), change in plasma relative to control",[2]; fh7 (day 7),1.05
same,"Pantothenic acid, change in plasma relative to control",[2]; fh7 (day 7),1.07
same,"Threonic acid, change in plasma relative to control",[2]; fh7 (day 7),1.23
same,"16-Methylheptadecanoic acid, change in plasma relative to control",[2]; fh14 (day 14),0.75
same,"17-Methyloctadecanoic acid, change in plasma relative to control",[2]; fh14 (day 14),0.57
same,"Cytosine, change in plasma relative to control",[2]; fh14 (day 14),0.86
same,"Phosphatidylcholine (C18:0/C22:6), change in plasma relative to control",[2]; fh14 (day 14),0.71
same,"Coenzyme Q9, change in plasma relative to control",[2]; fh14 (day 14),1.64
same,"Gamma-Linolenic acid (C18:cis[6,9,12]3), change in plasma relative to control",[2]; fh14 (day 14),1.88
same,"Glycerol, lipid fraction, change in plasma relative to control",[2]; fh14 (day 14),1.64
same,"Palmitic acid (C16:0), change in plasma relative to control",[2]; fh14 (day 14),1.38
same,"Pantothenic acid, change in plasma relative to control",[2]; fh14 (day 14),1.75
same,"Threonic acid, change in plasma relative to control",[2]; fh14 (day 14),1.30
same,"16-Methylheptadecanoic acid, change in plasma relative to control",[2]; fh28 (day 28),0.75
same,"17-Methyloctadecanoic acid, change in plasma relative to control",[2]; fh28 (day 28),0.77
same,"Cytosine, change in plasma relative to control",[2]; fh28 (day 28),1.00
same,"Phosphatidylcholine (C18:0/C22:6), change in plasma relative to control",[2]; fh28 (day 28),0.53
same,"Coenzyme Q9, change in plasma relative to control",[2]; fh28 (day 28),2.55
same,"Gamma-Linolenic acid (C18:cis[6,9,12]3), change in plasma relative to control",[2]; fh28 (day 28),7.00
same,"Glycerol, lipid fraction, change in plasma relative to control",[2]; fh28 (day 28),4.99
same,"Palmitic acid (C16:0), change in plasma relative to control",[2]; fh28 (day 28),2.31
same,"Pantothenic acid, change in plasma relative to control",[2]; fh28 (day 28),1.22
same,"Threonic acid, change in plasma relative to control",[2]; fh28 (day 28),1.30
CCCCOC(=O)c1ccccc1C(=O)OCc1ccccc1 [Benzylbutyl Phthalate],"16-Methylheptadecanoic acid, change in plasma relative to control",[1]; mh7 (day 7),0.24
same,"17-Methyloctadecanoic acid, change in plasma relative to control",[1]; mh7 (day 7),0.37
same,"Coenzyme Q10, change in plasma relative to control",[1]; mh7 (day 7),0.51
same,"Proline, change in plasma relative to control",[1]; mh7 (day 7),0.74
same,"Threonine, change in plasma relative to control",[1]; mh7 (day 7),0.55
same,"Tyrosine, change in plasma relative to control",[1]; mh7 (day 7),0.74
same,"trans-4-Hydroxyproline, change in plasma relative to control",[1]; mh7 (day 7),0.69
same,"Eicosatrienoic acid (C20:3), change in plasma relative to control",[1]; mh7 (day 7),2.56
same,"16-Methylheptadecanoic acid, change in plasma relative to control",[1]; mh14 (day 14),0.31
same,"17-Methyloctadecanoic acid, change in plasma relative to control",[1]; mh14 (day 14),0.28
same,"Coenzyme Q10, change in plasma relative to control",[1]; mh14 (day 14),0.34
same,"Proline, change in plasma relative to control",[1]; mh14 (day 14),0.85
same,"Threonine, change in plasma relative to control",[1]; mh14 (day 14),0.69
same,"Tyrosine, change in plasma relative to control",[1]; mh14 (day 14),0.83
same,"trans-4-Hydroxyproline, change in plasma relative to control",[1]; mh14 (day 14),0.65
same,"Eicosatrienoic acid (C20:3), change in plasma relative to control",[1]; mh14 (day 14),3.12
same,"16-Methylheptadecanoic acid, change in plasma relative to control",[1]; mh28 (day 28),0.20
same,"17-Methyloctadecanoic acid, change in plasma relative to control",[1]; mh28 (day 28),0.30
same,"Coenzyme Q10, change in plasma relative to control",[1]; mh28 (day 28),0.27
same,"Proline, change in plasma relative to control",[1]; mh28 (day 28),0.84
same,"Threonine, change in plasma relative to control",[1]; mh28 (day 28),0.81
same,"Tyrosine, change in plasma relative to control",[1]; mh28 (day 28),0.97
same,"trans-4-Hydroxyproline, change in plasma relative to control",[1]; mh28 (day 28),0.83
same,"Eicosatrienoic acid (C20:3), change in plasma relative to control",[1]; mh28 (day 28),4.12
same,"16-Methylheptadecanoic acid, change in plasma relative to control",[2]; fh7 (day 7),0.55
same,"17-Methyloctadecanoic acid, change in plasma relative to control",[2]; fh7 (day 7),0.78
same,"Cytosine, change in plasma relative to control",[2]; fh7 (day 7),0.77
same,"Phosphatidylcholine (C18:0/C22:6), change in plasma relative to control",[2]; fh7 (day 7),0.59
same,"Coenzyme Q9, change in plasma relative to control",[2]; fh7 (day 7),1.44
same,"Gamma-Linolenic acid (C18:cis[6,9,12]3), change in plasma relative to control",[2]; fh7 (day 7),1.98
same,"Glycerol, lipid fraction, change in plasma relative to control",[2]; fh7 (day 7),1.15
same,"Palmitic acid (C16:0), change in plasma relative to control",[2]; fh7 (day 7),1.48
same,"Pantothenic acid, change in plasma relative to control",[2]; fh7 (day 7),1.82
same,"Threonic acid, change in plasma relative to control",[2]; fh7 (day 7),1.20
same,"16-Methylheptadecanoic acid, change in plasma relative to control",[2]; fh14 (day 14),0.66
same,"17-Methyloctadecanoic acid, change in plasma relative to control",[2]; fh14 (day 14),0.64
same,"Cytosine, change in plasma relative to control",[2]; fh14 (day 14),0.63
same,"Phosphatidylcholine (C18:0/C22:6), change in plasma relative to control",[2]; fh14 (day 14),0.86
same,"Coenzyme Q9, change in plasma relative to control",[2]; fh14 (day 14),1.50
same,"Gamma-Linolenic acid (C18:cis[6,9,12]3), change in plasma relative to control",[2]; fh14 (day 14),1.64
same,"Glycerol, lipid fraction, change in plasma relative to control",[2]; fh14 (day 14),1.48
same,"Palmitic acid (C16:0), change in plasma relative to control",[2]; fh14 (day 14),1.79
same,"Pantothenic acid, change in plasma relative to control",[2]; fh14 (day 14),2.06
same,"Threonic acid, change in plasma relative to control",[2]; fh14 (day 14),1.53
same,"16-Methylheptadecanoic acid, change in plasma relative to control",[2]; fh28 (day 28),0.85
same,"17-Methyloctadecanoic acid, change in plasma relative to control",[2]; fh28 (day 28),0.69
same,"Cytosine, change in plasma relative to control",[2]; fh28 (day 28),0.79
same,"Phosphatidylcholine (C18:0/C22:6), change in plasma relative to control",[2]; fh28 (day 28),0.81
same,"Coenzyme Q9, change in plasma relative to control",[2]; fh28 (day 28),1.78
same,"Gamma-Linolenic acid (C18:cis[6,9,12]3), change in plasma relative to control",[2]; fh28 (day 28),2.08
same,"Glycerol, lipid fraction, change in plasma relative to control",[2]; fh28 (day 28),2.43
same,"Palmitic acid (C16:0), change in plasma relative to control",[2]; fh28 (day 28),1.94
same,"Pantothenic acid, change in plasma relative to control",[2]; fh28 (day 28),2.42
same,"Threonic acid, change in plasma relative to control",[2]; fh28 (day 28),1.74
